{"source": "patent US20220281848A1", "about": "“PYRAZOLE-SUBSTITUTED PYRROLIDINONES AS HERBICIDES” (FMC Corporation, priority 2019, published 2022)", "tested_on": "plants", "experiment": "Test D pre-emergence, other plants of Tables D1 and D3", "assay_type": "in vivo", "conditions": "preemergent, 20 DAA", "method_in_brief": "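Damage was rated visually from 0 (none) to 100 (total), at 20 DAA for pre-emergence and 15 d for post-emergence. Plants grew from safener-treated seed in a glasshouse at 24/18° C. or 20/16° C. day/night, 65% humidity, watered twice daily.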"}
{"smiles": "CN1CC(c2cc(C(F)(F)F)n(C)n2)C(C(=O)Nc2cccc(F)c2F)C1=O", "note": "(racemic) [Compound 3]", "values": [{"measurement": "damage to plant (100=total damage to plant; 0=no damage to plant), ABUTH", "setting": "rate 15", "result": 0}, {"measurement": "damage to plant (100=total damage to plant; 0=no damage to plant), ABUTH", "setting": "rate 30", "result": 0}, {"measurement": "damage to plant (100=total damage to plant; 0=no damage to plant), ABUTH", "setting": "rate 60", "result": 0}, {"measurement": "damage to plant (100=total damage to plant; 0=no damage to plant), ABUTH", "setting": "rate 130", "result": 0}, {"measurement": "damage to plant (100=total damage to plant; 0=no damage to plant), ABUTH", "setting": "rate 250", "result": 0}, {"measurement": "damage to plant (100=total damage to plant; 0=no damage to plant), ABUTH", "setting": "rate 500", "result": 0}, {"measurement": "damage to plant (100=total damage to plant; 0=no damage to plant), BIDPI", "setting": "rate 15", "result": 0}, {"measurement": "damage to plant (100=total damage to plant; 0=no damage to plant), BIDPI", "setting": "rate 30", "result": 0}, {"measurement": "damage to plant (100=total damage to plant; 0=no damage to plant), BIDPI", "setting": "rate 60", "result": 0}, {"measurement": "damage to plant (100=total damage to plant; 0=no damage to plant), BIDPI", "setting": "rate 130", "result": 0}, {"measurement": "damage to plant (100=total damage to plant; 0=no damage to plant), BIDPI", "setting": "rate 250", "result": 0}, {"measurement": "damage to plant (100=total damage to plant; 0=no damage to plant), BIDPI", "setting": "rate 500", "result": 0}, {"measurement": "damage to plant (100=total damage to plant; 0=no damage to plant), BRAPL", "setting": "rate 15", "result": 20}, {"measurement": "damage to plant (100=total damage to plant; 0=no damage to plant), BRAPL", "setting": "rate 30", "result": 50}, {"measurement": "damage to plant (100=total damage to plant; 0=no damage to plant), BRAPL", "setting": "rate 60", "result": 90}, {"measurement": "damage to plant (100=total damage to plant; 0=no damage to plant), BRAPL", "setting": "rate 130", "result": 100}, {"measurement": "damage to plant (100=total damage to plant; 0=no damage to plant), BRAPL", "setting": "rate 250", "result": 100}, {"measurement": "damage to plant (100=total damage to plant; 0=no damage to plant), BRAPL", "setting": "rate 500", "result": 100}, {"measurement": "damage to plant (100=total damage to plant; 0=no damage to plant), CYPES", "setting": "rate 15", "result": 0}, {"measurement": "damage to plant (100=total damage to plant; 0=no damage to plant), CYPES", "setting": "rate 30", "result": 0}, {"measurement": "damage to plant (100=total damage to plant; 0=no damage to plant), CYPES", "setting": "rate 60", "result": 0}, {"measurement": "damage to plant (100=total damage to plant; 0=no damage to plant), CYPES", "setting": "rate 130", "result": 0}, {"measurement": "damage to plant (100=total damage to plant; 0=no damage to plant), CYPES", "setting": "rate 250", "result": 0}, {"measurement": "damage to plant (100=total damage to plant; 0=no damage to plant), CYPES", "setting": "rate 500", "result": 10}, {"measurement": "damage to plant (100=total damage to plant; 0=no damage to plant), DIGSA", "setting": "rate 15", "result": 20}, {"measurement": "damage to plant (100=total damage to plant; 0=no damage to plant), DIGSA", "setting": "rate 30", "result": 90}, {"measurement": "damage to plant (100=total damage to plant; 0=no damage to plant), DIGSA", "setting": "rate 60", "result": 90}, {"measurement": "damage to plant (100=total damage to plant; 0=no damage to plant), DIGSA", "setting": "rate 130", "result": 100}, {"measurement": "damage to plant (100=total damage to plant; 0=no damage to plant), DIGSA", "setting": "rate 250", "result": 100}, {"measurement": "damage to plant (100=total damage to plant; 0=no damage to plant), DIGSA", "setting": "rate 500", "result": 100}, {"measurement": "damage to plant (100=total damage to plant; 0=no damage to plant), ECHCG", "setting": "rate 15", "result": 20}, {"measurement": "damage to plant (100=total damage to plant; 0=no damage to plant), ECHCG", "setting": "rate 30", "result": 90}, {"measurement": "damage to plant (100=total damage to plant; 0=no damage to plant), ECHCG", "setting": "rate 60", "result": 90}, {"measurement": "damage to plant (100=total damage to plant; 0=no damage to plant), ECHCG", "setting": "rate 130", "result": 90}, {"measurement": "damage to plant (100=total damage to plant; 0=no damage to plant), ECHCG", "setting": "rate 250", "result": 100}, {"measurement": "damage to plant (100=total damage to plant; 0=no damage to plant), ECHCG", "setting": "rate 500", "result": 100}, {"measurement": "damage to plant (100=total damage to plant; 0=no damage to plant), ELEIN", "setting": "rate 15", "result": 0}, {"measurement": "damage to plant (100=total damage to plant; 0=no damage to plant), ELEIN", "setting": "rate 30", "result": 0}, {"measurement": "damage to plant (100=total damage to plant; 0=no damage to plant), ELEIN", "setting": "rate 60", "result": 0}, {"measurement": "damage to plant (100=total damage to plant; 0=no damage to plant), ELEIN", "setting": "rate 130", "result": 0}, {"measurement": "damage to plant (100=total damage to plant; 0=no damage to plant), ELEIN", "setting": "rate 250", "result": 0}, {"measurement": "damage to plant (100=total damage to plant; 0=no damage to plant), ELEIN", "setting": "rate 500", "result": 0}, {"measurement": "damage to plant (100=total damage to plant; 0=no damage to plant), EPHHL", "setting": "rate 15", "result": 0}, {"measurement": "damage to plant (100=total damage to plant; 0=no damage to plant), EPHHL", "setting": "rate 30", "result": 0}, {"measurement": "damage to plant (100=total damage to plant; 0=no damage to plant), EPHHL", "setting": "rate 60", "result": 0}, {"measurement": "damage to plant (100=total damage to plant; 0=no damage to plant), EPHHL", "setting": "rate 130", "result": 0}, {"measurement": "damage to plant (100=total damage to plant; 0=no damage to plant), EPHHL", "setting": "rate 250", "result": 10}, {"measurement": "damage to plant (100=total damage to plant; 0=no damage to plant), EPHHL", "setting": "rate 500", "result": 10}, {"measurement": "damage to plant (100=total damage to plant; 0=no damage to plant), GLXMA", "setting": "rate 15", "result": 0}, {"measurement": "damage to plant (100=total damage to plant; 0=no damage to plant), GLXMA", "setting": "rate 30", "result": 0}, {"measurement": "damage to plant (100=total damage to plant; 0=no damage to plant), GLXMA", "setting": "rate 60", "result": 0}, {"measurement": "damage to plant (100=total damage to plant; 0=no damage to plant), GLXMA", "setting": "rate 130", "result": 0}, {"measurement": "damage to plant (100=total damage to plant; 0=no damage to plant), GLXMA", "setting": "rate 250", "result": 0}, {"measurement": "damage to plant (100=total damage to plant; 0=no damage to plant), GLXMA", "setting": "rate 500", "result": 10}, {"measurement": "damage to plant (100=total damage to plant; 0=no damage to plant), IPOHE", "setting": "rate 15", "result": 0}, {"measurement": "damage to plant (100=total damage to plant; 0=no damage to plant), IPOHE", "setting": "rate 30", "result": 0}, {"measurement": "damage to plant (100=total damage to plant; 0=no damage to plant), IPOHE", "setting": "rate 60", "result": 0}, {"measurement": "damage to plant (100=total damage to plant; 0=no damage to plant), IPOHE", "setting": "rate 130", "result": 0}, {"measurement": "damage to plant (100=total damage to plant; 0=no damage to plant), IPOHE", "setting": "rate 250", "result": 0}, {"measurement": "damage to plant (100=total damage to plant; 0=no damage to plant), IPOHE", "setting": "rate 500", "result": 0}, {"measurement": "damage to plant (100=total damage to plant; 0=no damage to plant), ORYSA", "setting": "rate 15", "result": 0}, {"measurement": "damage to plant (100=total damage to plant; 0=no damage to plant), ORYSA", "setting": "rate 30", "result": 0}, {"measurement": "damage to plant (100=total damage to plant; 0=no damage to plant), ORYSA", "setting": "rate 60", "result": 0}, {"measurement": "damage to plant (100=total damage to plant; 0=no damage to plant), ORYSA", "setting": "rate 130", "result": 0}, {"measurement": "damage to plant (100=total damage to plant; 0=no damage to plant), ORYSA", "setting": "rate 250", "result": 0}, {"measurement": "damage to plant (100=total damage to plant; 0=no damage to plant), ORYSA", "setting": "rate 500", "result": 0}, {"measurement": "damage to plant (100=total damage to plant; 0=no damage to plant), PANMI", "setting": "rate 15", "result": 0}, {"measurement": "damage to plant (100=total damage to plant; 0=no damage to plant), PANMI", "setting": "rate 30", "result": 0}, {"measurement": "damage to plant (100=total damage to plant; 0=no damage to plant), PANMI", "setting": "rate 60", "result": 0}, {"measurement": "damage to plant (100=total damage to plant; 0=no damage to plant), PANMI", "setting": "rate 130", "result": 0}, {"measurement": "damage to plant (100=total damage to plant; 0=no damage to plant), PANMI", "setting": "rate 250", "result": 0}, {"measurement": "damage to plant (100=total damage to plant; 0=no damage to plant), PANMI", "setting": "rate 500", "result": 0}, {"measurement": "damage to plant (100=total damage to plant; 0=no damage to plant), SETFA", "setting": "rate 15", "result": 0}, {"measurement": "damage to plant (100=total damage to plant; 0=no damage to plant), SETFA", "setting": "rate 30", "result": 30}, {"measurement": "damage to plant (100=total damage to plant; 0=no damage to plant), SETFA", "setting": "rate 60", "result": 80}, {"measurement": "damage to plant (100=total damage to plant; 0=no damage to plant), SETFA", "setting": "rate 130", "result": 90}, {"measurement": "damage to plant (100=total damage to plant; 0=no damage to plant), SETFA", "setting": "rate 250", "result": 90}, {"measurement": "damage to plant (100=total damage to plant; 0=no damage to plant), SETFA", "setting": "rate 500", "result": 90}, {"measurement": "damage to plant (100=total damage to plant; 0=no damage to plant), SIDSP", "setting": "rate 15", "result": 0}, {"measurement": "damage to plant (100=total damage to plant; 0=no damage to plant), SIDSP", "setting": "rate 30", "result": 0}, {"measurement": "damage to plant (100=total damage to plant; 0=no damage to plant), SIDSP", "setting": "rate 130", "result": 0}, {"measurement": "damage to plant (100=total damage to plant; 0=no damage to plant), SIDSP", "setting": "rate 250", "result": 60}, {"measurement": "damage to plant (100=total damage to plant; 0=no damage to plant), SIDSP", "setting": "rate 500", "result": 60}, {"measurement": "damage to plant (100=total damage to plant; 0=no damage to plant), SORVU", "setting": "rate 15", "result": 0}, {"measurement": "damage to plant (100=total damage to plant; 0=no damage to plant), SORVU", "setting": "rate 30", "result": 0}, {"measurement": "damage to plant (100=total damage to plant; 0=no damage to plant), SORVU", "setting": "rate 60", "result": 0}, {"measurement": "damage to plant (100=total damage to plant; 0=no damage to plant), SORVU", "setting": "rate 130", "result": 0}, {"measurement": "damage to plant (100=total damage to plant; 0=no damage to plant), SORVU", "setting": "rate 250", "result": 0}, {"measurement": "damage to plant (100=total damage to plant; 0=no damage to plant), SORVU", "setting": "rate 500", "result": 0}]}
